In patent publication US20150157682A1, “VALERIAN EXTRACTS AND USES THEREOF” (priority 2012, published 2015):

Target: benzodiazepine receptors (3H-flunitrazepam labelled binding sites)
Test: 3H-flunitrazepam competition binding assay, crude synaptosomal membranes of rat frontal cortex
Settings: 1 nM 3H-flunitrazepam
Description: For the binding experiment male RjHan:WI rats (Janvier, Le Genest-Saint-Isle, France) were used. […] The animals were housed in groups of 5 in Macrolon IV cages.
For the ^3H-GABA binding assay tissue (dissected rat frontal cortex) was homogenized in 50 mM Tris-HCl buffer pH 7.4 containing 120 mM NaCl, 5 mM KCl, 2 mM CaCl2 and 1 mM MgCl2; for ^3H-flunitrazepam it was homogenized in 50 mM Tris-HCl buffer pH 7.4 containing 1 mM EGTA, 10 mM EDTA and 3 mM MgCl2, centrifuged (50.000 g, 15 min) and washed twice with the corresponding buffer. The resulting pellet was resuspended with buffer. […] Specific binding was calculated by subtracting non-specific binding—defined as that seen in the presence of 1 μM unlabelled GABA or 1 μM diazepam or chlordiazepoxide—from the total binding obtained with radioligand alone. In parallel VE-1, VE-2 and AVA were used for all binding assays. The incubation was terminated by addition of ice-cold buffer and rapid filtration through glass fibre filters. The filters were washed, dried, a scintillation cocktail was added, and radioactivity was counted using a β-counter (Beckman Coulter, Germany).

CN1C(=O)CN=C(c2ccccc2)c2cc(Cl)ccc21 [Diazepam, diazepam]
EC50: 0.4 ± 0.05 µM
